Measurements reported in US7169789B2 (Kirin Beer Kabushiki Kaisha, priority 1999, dated 2007).

Tests used:
[1] = test system: activation of MAPK within vascular endothelial cells induced by VEGF stimulation; assay: Inhibitory activity against activation of MAPK within vascular endothelial cells induced by VEGF stimulation; format: cell-based; conditions: human funicular venous vascular endothelial cells, VEGF 50 ng/ml, phosphorylated MAPK by immunoblotting
In short: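 Serum-starved (0.5% FCS, 24 h) human umbilical vein endothelial cells pretreated with compound 1 h at 37 °C, then stimulated with 50 ng/ml recombinant human VEGF for 8 min.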

Human glioma cells GL07 = assay: Antitumor effect on human glioma cells (GL07) transplanted into nude mice; format: in vivo; conditions: Mus musculus, Glioma cell, ip, 216 h, GL07, intraperitoneal, 20 mg/kg once a day for 9 days, read-out: TGIR, % (tumor growth inhibition rate)
In short: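 GL07 xenografts in nude mice, grouped (n=4) at ~100 mm^3 tumor volume. Test compound 20 mg/kg p.o. or i.p. once daily for 9 days; vehicle controls. TGIR = (1−Tx/Cx)×100 from tumor volumes normalized to day-of-start volume = 1.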

[2] = test system: A375 human melanoma cells; assay: Karyomorphosis test; format: cell-based; conditions: test compound 10 μM and 1 μM, 48 hr, nuclei stained with propidium iodide
Method: A375 human melanoma cells (2×10^4) (obtained from Japanese Foundation for Cancer Research) were incolulated on a culture slide (manufactured by Falcon) and were cultured at 37° C. After the elapse of 5 hr from the initiation of the cultivation, the test compound was added to 10 μM and 1 μM, and the cultivation was continued for additional 48 hr. After the fixation of cells, 50 μg/ml propidium iodide solution containing ribonuclease (200 μg/ml) was added to stain nuclei. The stained nuclei were observed under a fluorescent microscope to analyze the nuclei for abnormality of karyomorphosis.

| SMILES | IC50 ([1]; Endothelial cell) [nM] | inhibition in vivo at 20 mg/kg (Human glioma cells GL07) [%] | Change in morphosis [2] | IC50 [1] [nM] |
| --- | --- | --- | --- | --- |
| CCCNC(=O)Nc1ccc(Oc2ccnc3cc(OC)c(OC)cc23)cc1Cl [Example 13, N-{2-chloro-4-[(6,7-dimethoxy-4-quinolyl)oxy]-phenyl}-N′-propylurea] | 2.2 | 52 | (−) (the change in karyomorphosis of cells did not take place at 10 μM) | – |
| COc1cc2nccc(Oc3ccc(NC(=O)Nc4ccc(F)cc4C)c(Cl)c3)c2cc1OC [Example 14, N-{2-Chloro-4-[(6,7-dimethoxy-4-quinolyl)oxy]phenyl}-N′-(4-fluoro-2-methylphenyl)urea] | 0.7 | 81 | (−) (the change in karyomorphosis of cells did not take place at 10 μM) | – |
| COc1cc2nccc(Oc3ccc(NC(=O)Nc4ccc(C)cn4)c(Cl)c3)c2cc1OC [Example 20, N-{2-Chloro-4-[(6,7-dimethoxy-4-guinolyl)oxy]phenyl}-N′-(5-methyl-2-pyridyl)urea] | – | – | (−) (the change in karyomorphosis of cells did not take place at 10 μM) | 8.5 |
| COc1cc2nccc(Oc3ccc(NC(=O)Nc4cccc(C)n4)c(Cl)c3)c2cc1OC [Example 21, N-{2-Chloro-4-[(6,7-dimethoxy-4-quinolyl)oxy]phenyl}-N′-(6-methyl-2-pyridyl)urea] | 3.4 | – | (−) (the change in karyomorphosis of cells did not take place at 10 μM) | – |
| COc1ccc(NC(=O)Nc2ccc(Oc3ccnc4cc(OC)c(OC)cc34)cc2Cl)cc1.Cl [Example 22, N-{2-Chloro-4-[(6,7-dimethoxy-4-quinolyl)oxy]phenyl}-N′-(4-methoxyphenyl)urea hydrochloride] | 0.4 | – | (−) (the change in karyomorphosis of cells did not take place at 10 μM) | – |
| COc1cc2nccc(Oc3ccc(NC(=O)Nc4cccc(F)c4OC)c(C)c3C)c2cc1OC [Example 26, N-{4-[(6,7-Dimethoxy-4-guinolyl)oxy]-2,3-dimethylphenyl}-N′-(3-fluoro-2-methoxyphenyl)urea] | – | – | (−) (the change in karyomorphosis of cells did not take place at 10 μM) | 5.3 |
| COc1ccccc1NC(=O)Nc1ccc(Oc2ccnc3cc(OC)c(OC)cc23)c(C)c1C [Example 30, N-{4-[(6,7-Dimethoxy-4-guinolyl)oxy]-2,3-dimethylphenyl}-N′-(2-methoxyphenyl)urea] | – | – | (−) (the change in karyomorphosis of cells did not take place at 10 μM) | 1.7 |
| COc1cc2nccc(Oc3ccc(NC(=O)Nc4ccccc4C)c(C)c3C)c2cc1OC [Example 31, N-{4-[(6,7-Dimethoxy-4-guinolyl)oxy]-2,3-dimethylphenyl}-N′-(2-methylphenyl)urea] | – | – | (−) (the change in karyomorphosis of cells did not take place at 10 μM) | 2.5 |
| COc1cc2nccc(Oc3ccc(NC(=O)Nc4ccc(Cl)cc4C)c(C)c3C)c2cc1OC [Example 32, N-(4-Chloro-2-methylphenyl)-N′-{4-[(6,7-dimethoxy-4-guinolyl)oxy]-2,3-dimethylphenyl}urea] | – | – | (−) (the change in karyomorphosis of cells did not take place at 10 μM) | 7.3 |
| COc1cc2nccc(Oc3ccc(NC(=O)Nc4ccccn4)c(C)c3C)c2cc1OC [Example 33, N-{4-[(6,7-Dimethoxy-4-guinolyl)oxy]-2,3-dimethylphenyl}-N′-(2-pyridyl)urea] | – | – | (−) (the change in karyomorphosis of cells did not take place at 10 μM) | 3.5 |
| COc1cc2nccc(Oc3ccc(NC(=O)Nc4ccc(C)cn4)c(C)c3C)c2cc1OC [Example 34, N-{4-[(6,7-Dimethoxy-4-guinolyl)oxy]-2,3-dimethylphenyl}-N′-(5-methyl-2-pyridyl)urea] | – | – | (−) (the change in karyomorphosis of cells did not take place at 10 μM) | 4.2 |
| COc1cc2nccc(Oc3ccc(NC(=O)Nc4cccc(C)n4)c(C)c3C)c2cc1OC [Example 35, N-{4-[(6,7-Dimethoxy-4-quinolyl)oxy]-2,3-dimethylphenyl}-N′-(6-methyl-2-pyridyl)urea] | 3.7 | – | (−) (the change in karyomorphosis of cells did not take place at 10 μM) | – |
| COc1ccc(NC(=O)Nc2ccc(Oc3ccnc4cc(OC)c(OC)cc34)c(C)c2C)cc1 [Example 36, N-{4-[(6,7-Dimethoxy-4-guinolyl)oxy]-2,3-dimethylphenyl}-N′-(4-methoxyphenyl)urea] | – | – | (−) (the change in karyomorphosis of cells did not take place at 10 μM) | 3.3 |
| COc1cc2nccc(Oc3cc(C)c(NC(=O)Nc4ccc(F)cc4C)cc3C)c2cc1OC [Example 40, N-{4-[(6,7-Dimethoxy-4-quinolyl)oxy]-2,5-dimethylphenyl}-N′-(4-fluoro-2-methylphenyl)urea] | 12 | – | (−) (the change in karyomorphosis of cells did not take place at 10 μM) | – |
| COc1cc2nccc(Oc3cc(C)c(NC(=O)Nc4cccc(F)c4OC)cc3C)c2cc1OC [Example 41, N-{4-[(6,7-Dimethoxy-4-quinolyl)oxy]-2,5-dimethylphenyl}-N′-(3-fluoro-2-methoxyphenyl)urea] | 4.9 | – | (−) (the change in karyomorphosis of cells did not take place at 10 μM) | – |
| COc1cc2nccc(Oc3cc(C)c(NC(=O)Nc4ccccc4C)cc3C)c2cc1OC [Example 42, N-{4-[(6,7-Dimethoxy-4-guinolyl)oxy]-2,5-dimethylphenyl}-N′-(2-methylphenyl)urea] | – | – | (−) (the change in karyomorphosis of cells did not take place at 10 μM) | 5.9 |
| COc1ccccc1NC(=O)Nc1cc(C)c(Oc2ccnc3cc(OC)c(OC)cc23)cc1C [Example 43, N-{4-[(6,7-Dimethoxy-4-quinolyl)oxy]-2,5-dimethylphenyl}-N′-(2-methoxyphenyl)urea] | 3.8 | – | (−) (the change in karyomorphosis of cells did not take place at 10 μM) | – |
| COc1ccc(NC(=O)Nc2cc(C)c(Oc3ccnc4cc(OC)c(OC)cc34)cc2C)c(OC)n1 [Example 45, N-(2,6-Dimethoxy-3-pyridyl)-N′-{4-[(6,7-dimethoxy-4-quinolyl)oxy]-2,5-dimethylphenyl}urea] | 2 | – | (−) (the change in karyomorphosis of cells did not take place at 10 μM) | – |
| COc1ccc(NC(=O)Nc2cc(C)c(Oc3ccnc4cc(OC)c(OC)cc34)cc2C)cc1 [Example 46, N-{4-[(6,7-Dimethoxy-4-quinolyl)oxy]-2,5-dimethylphenyl}-N′-(4-methoxyphenyl)urea] | 4.3 | – | (−) (the change in karyomorphosis of cells did not take place at 10 μM) | – |
| CCCNC(=O)Nc1ccc(Oc2ccnc3cc(OC)c(OC)cc23)cc1[N+](=O)[O-] [Example 47, N-{4-[(6,7-Dimethoxy-4-guinolyl)oxy]-2-nitrophenyl}-N′-propylurea] | – | – | (−) (the change in karyomorphosis of cells did not take place at 10 μM) | 4 |
| COc1cc2nccc(Oc3c(Cl)cc(NC(=O)Nc4ccc(F)cc4F)cc3Cl)c2cc1OC [Example 49, N-{3,5-Dichloro-4-[(6,7-dimethoxy-4-quinolyl)oxy]phenyl}-N′-(2,4-difluorophenyl)urea] | 4.3 | – | (−) (the change in karyomorphosis of cells did not take place at 10 μM) | – |
| COc1cc2c(Oc3cc(C)c(NC(=O)Nc4ccc(F)cc4F)cc3C)ccnc2cc1OCCN1CCOCC1 [Example 52, N-(2,4-Difluorophenyl)-N′-(4-{[6-methoxy-7-(2-morpholinoethoxy)-4-guinolyl]oxy}-2,5-dimethylphenyl)urea] | – | – | (−) (the change in karyomorphosis of cells did not take place at 10 μM) | 4.4 |
| COc1ccccc1NC(=O)Nc1cc(C)c(Oc2ccnc3cc(OCCN4CCOCC4)c(OC)cc23)cc1C [Example 53, N-(4-{[6-Methoxy-7-(2-morpholinoethoxy)-4-quinolyl]oxy}-2,5-dimethylphenyl)-N′-(2-methoxyphenyl)urea] | 5.9 | – | (−) (the change in karyomorphosis of cells did not take place at 10 μM) | – |
| COCCOc1cc2nccc(Oc3ccc(NC(=O)Nc4ccccc4OC)c(Cl)c3)c2cc1OC [Example 55, N-(2-Chloro-4-{[6-methoxy-7-(2-methoxyethoxy)-4-quinolyl]oxy}phenyl)-N′-(2-methoxyphenyl)urea] | 2.8 | – | (−) (the change in karyomorphosis of cells did not take place at 10 μM) | – |
| COCCOc1cc2nccc(Oc3cc(C)c(NC(=O)Nc4ccc(F)cc4F)cc3C)c2cc1OC [Example 58] | – | – | (−) (the change in karyomorphosis of cells did not take place at 10 μM) | 5.1 |
| COCCOc1cc2nccc(Oc3cc(C)c(NC(=O)Nc4ccccc4OC)cc3C)c2cc1OC [Example 59, N-(4-{[6-Methoxy-7-(2-methoxyethoxy)-4-quinolyl]oxy}-2,5-dimethylphenyl)-N′-(2-methoxyphenyl)-urea] | 5.8 | – | (−) (the change in karyomorphosis of cells did not take place at 10 μM) | – |
